Experimental data reported in PubChem BioAssay AID1745844 (Carcinogenic Potency Database (CPDB), 2022).
Calls of active or inactive are those of the source. No rule for the calls is given here.

Tested on: rodent lifetime carcinogenesis bioassay, tumor incidence TD50
Experiment: carcinogenic potency in animals, long-term in vivo studies, CPDB compilation (AID 1745844)

**Q.** With `CCn1cc(C(=O)O)c(=O)c2ccc(C)nc21` as the molecule, how does the TD50 (mouse, strain B6C3F1, females, in feed, site: adrenal medulla, lesion: pheochromocytoma, dosed 103 weeks, study length 104 weeks) read?
**A.** 3630 mg/kg/day (inactive)

**Q.** What about the TD50 (mouse, strain B6C3F1, females, in feed, site: any site (literature study), lesion: several types, types named in the paper, dosed 103 weeks, study length 104 weeks) of the same molecule?
**A.** 1690 mg/kg/day

**Q.** And the TD50 (mouse, strain B6C3F1, females, in feed, site: liver, lesion: hepatocellular adenoma + hepatocellular carcinoma + neoplastic nodule, dosed 103 weeks, study length 104 weeks)?
**A.** 3160 mg/kg/day

**Q.** What about the TD50 (mouse, strain B6C3F1, females, in feed, site: lung, lesion: alveolar/bronchiolar adenoma + alveolar/bronchiolar carcinoma, dosed 103 weeks, study length 104 weeks) of the same molecule?
**A.** 4900 mg/kg/day

**Q.** And the TD50 (mouse, strain B6C3F1, males, in feed, site: any site (literature study), lesion: several types, types named in the paper, dosed 103 weeks, study length 104 weeks)?
**A.** 1330 mg/kg/day

**Q.** What about the TD50 (mouse, strain B6C3F1, males, in feed, site: lung, lesion: alveolar/bronchiolar adenoma + alveolar/bronchiolar carcinoma, dosed 103 weeks, study length 104 weeks) of the same molecule?
**A.** 4600 mg/kg/day

**Q.** And the TD50 (mouse, strain B6C3F1, males, in feed, site: subcutaneous tissue, lesion: fibrosarcoma + fibroma, dosed 103 weeks, study length 104 weeks)?
**A.** 1210 mg/kg/day

**Q.** And the carcinogen call (mouse, strain CDF1, females, in feed, site: any site (literature study), lesion: one or several types, types not named, dosed 76 weeks, study length 85 weeks)?
**A.** negative (inactive)

**Q.** And the TD50 (mouse, strain CDF1, females, in feed, site: liver, lesion: hepatocellular adenoma, dosed 76 weeks, study length 85 weeks)?
**A.** 6450 mg/kg/day (inactive)

**Q.** What about the TD50 (mouse, strain CDF1, females, in feed, site: lung, lesion: adenocarcinoma, dosed 76 weeks, study length 85 weeks) of the same molecule?
**A.** 1770 mg/kg/day (inactive)

**Q.** What about the carcinogen call (mouse, strain CDF1, females, in feed, site: lung, lesion: several types, types named in the paper, dosed 76 weeks, study length 85 weeks) of the same molecule?
**A.** negative (inactive)

**Q.** And the carcinogen call (mouse, strain CDF1, males, in feed, site: any site (literature study), lesion: one or several types, types not named, dosed 76 weeks, study length 85 weeks)?
**A.** negative (inactive)

**Q.** What about the carcinogen call (mouse, strain CDF1, males, in feed, site: liver, lesion: hepatocellular adenoma, dosed 76 weeks, study length 85 weeks) of the same molecule?
**A.** negative (inactive)

**Q.** What about the TD50 (mouse, strain CDF1, males, in feed, site: liver, lesion: hepatocellular carcinoma, dosed 76 weeks, study length 85 weeks) of the same molecule?
**A.** 1940 mg/kg/day (inactive)

**Q.** And the TD50 (mouse, strain CDF1, males, in feed, site: liver, lesion: several types, types named in the paper, dosed 76 weeks, study length 85 weeks)?
**A.** 3100 mg/kg/day (inactive)

**Q.** What about the TD50 (mouse, strain CDF1, males, in feed, site: lung, lesion: adenocarcinoma, dosed 76 weeks, study length 85 weeks) of the same molecule?
**A.** 3980 mg/kg/day (inactive)

**Q.** And the carcinogen call (mouse, strain CDF1, males, in feed, site: lung, lesion: several types, types named in the paper, dosed 76 weeks, study length 85 weeks)?
**A.** negative (inactive)

**Q.** And the TD50 (rat, strain Fischer 344, females, in feed, site: clitoral gland, lesion: adenoma, NOS + carcinoma, NOS + papillary carcinoma + papilloma, NOS, dosed 103 weeks, study length 104 weeks)?
**A.** 372 mg/kg/day

**Q.** And the TD50 (rat, strain Fischer 344, males, in feed, site: any site (literature study), lesion: several types, types named in the paper, dosed 103 weeks, study length 104 weeks)?
**A.** 7600 mg/kg/day

**Q.** And the TD50 (rat, strain Fischer 344, males, in feed, site: preputial gland, lesion: adenoma, NOS + carcinoma, NOS + papilloma, NOS, dosed 103 weeks, study length 104 weeks)?
**A.** 138 mg/kg/day

**Q.** What about the TD50 (rat, strain Fischer 344, males, in feed, site: preputial gland, lesion: adenoma, NOS + papilloma, NOS, dosed 103 weeks, study length 104 weeks) of the same molecule?
**A.** 358 mg/kg/day

**Q.** What about the TD50 (rat, strain Fischer 344, males, in feed, site: preputial gland, lesion: adenoma, NOS, dosed 103 weeks, study length 104 weeks) of the same molecule?
**A.** 301 mg/kg/day

**Q.** And the TD50 (rat, strain Fischer 344, males, in feed, site: preputial gland, lesion: carcinoma, NOS, dosed 103 weeks, study length 104 weeks)?
**A.** 211 mg/kg/day

**Q.** How did the TD50 (mouse, strain B6C3F1, females, inhaled, site: liver, lesion: hepatocellular carcinoma, dosed 105 weeks, study length 105 weeks) turn out when `CCCCCC` was run?
**A.** 84800 mg/kg/day

**Q.** And the TD50 (mouse, strain B6C3F1, females, inhaled, site: liver, lesion: several types, types named in the paper, dosed 105 weeks, study length 105 weeks)?
**A.** 30300 mg/kg/day

**Q.** And the TD50 (mouse, strain B6C3F1, females, inhaled, site: pituitary gland, lesion: adenoma, dosed 105 weeks, study length 105 weeks)?
**A.** 10300 mg/kg/day

**Q.** What about the TD50 (mouse, strain B6C3F1, females, inhaled, site: pituitary gland, lesion: several types, types named in the paper, dosed 105 weeks, study length 105 weeks) of the same molecule?
**A.** 9460 mg/kg/day

**Q.** And the carcinogen call (mouse, strain B6C3F1, males, inhaled, site: liver, lesion: several types, types named in the paper, dosed 105 weeks, study length 105 weeks)?
**A.** negative (inactive)

**Q.** What about the carcinogen call (rat, strain Fischer 344, females, inhaled, site: nasal mucosa, lesion: one or several types, types not named, dosed 105 weeks, study length 105 weeks) of the same molecule?
**A.** negative (inactive)

**Q.** What about the carcinogen call (rat, strain Fischer 344, males, inhaled, site: nasal mucosa, lesion: one or several types, types not named, dosed 105 weeks, study length 105 weeks) of the same molecule?
**A.** negative (inactive)

**Q.** With `BrC(Br)Br` as the molecule, how does the TD50 (mouse, strain B6C3F1, females, by gavage, site: liver + spleen, lesion: hemangiosarcoma, dosed 103 weeks, study length 106 weeks) read?
**A.** 1110 mg/kg/day (inactive)

**Q.** And the TD50 (mouse, strain B6C3F1, females, by gavage, site: liver, lesion: hepatocellular adenoma + hepatocellular carcinoma + neoplastic nodule, dosed 103 weeks, study length 106 weeks)?
**A.** 570 mg/kg/day

**Q.** And the TD50 (mouse, strain B6C3F1, males, by gavage, site: any site (literature study), lesion: several types, types named in the paper, dosed 103 weeks, study length 106 weeks)?
**A.** 41 mg/kg/day

**Q.** And the TD50 (mouse, strain B6C3F1, males, by gavage, site: liver, lesion: hepatocellular adenoma + hepatocellular carcinoma + neoplastic nodule, dosed 103 weeks, study length 106 weeks)?
**A.** 53.6 mg/kg/day

**Q.** And the TD50 (mouse, strain B6C3F1, males, by gavage, site: lung, lesion: alveolar/bronchiolar adenoma + alveolar/bronchiolar carcinoma, dosed 103 weeks, study length 106 weeks)?
**A.** 2450 mg/kg/day

**Q.** And the TD50 (mouse, strain B6C3F1, males, by gavage, site: subcutaneous tissue, lesion: fibrosarcoma + sarcoma, dosed 103 weeks, study length 106 weeks)?
**A.** 81.9 mg/kg/day (inactive)

**Q.** What about the TD50 (rat, strain Fischer 344, females, by gavage, site: large intestine, lesion: adenocarcinoma + polypoid adenoma, dosed 103 weeks, study length 106 weeks) of the same molecule?
**A.** 469 mg/kg/day

**Q.** What about the TD50 (rat, strain Fischer 344, females, by gavage, site: large intestine, lesion: polypoid adenoma, dosed 103 weeks, study length 106 weeks) of the same molecule?
**A.** 632 mg/kg/day

**Q.** And the TD50 (rat, strain Fischer 344, females, by gavage, site: liver, lesion: hepatocellular adenoma + hepatocellular carcinoma + neoplastic nodule, dosed 103 weeks, study length 106 weeks)?
**A.** 676 mg/kg/day

**Q.** What about the TD50 (rat, strain Fischer 344, males, by gavage, site: any site (literature study), lesion: several types, types named in the paper, dosed 103 weeks, study length 105 weeks) of the same molecule?
**A.** 513 mg/kg/day

**Q.** And the TD50 (rat, strain Fischer 344, males, by gavage, site: large intestine, lesion: adenocarcinoma + polypoid adenoma, dosed 103 weeks, study length 105 weeks)?
**A.** 1050 mg/kg/day

**Q.** And the TD50 (rat, strain Fischer 344, males, by gavage, site: testis, lesion: interstitial-cell adenoma, bilateral + interstitial-cell adenoma, dosed 103 weeks, study length 105 weeks)?
**A.** 75 mg/kg/day

**Q.** And the TD50 (rat, strain Fischer 344, males, by gavage, site: thyroid gland, lesion: follicular-cell carcinoma, dosed 103 weeks, study length 105 weeks)?
**A.** 656 mg/kg/day

**Q.** Which results are given for `O=C1c2cccc(O)c2C(=O)c2c(O)cccc21`?
**A.** TD50 (mouse, strain C3H/HeN, males, in feed, site: liver, lesion: hepatocellular adenoma, dosed 77 weeks, study length 77 weeks): 201 mg/kg/day; TD50 (mouse, strain C3H/HeN, males, in feed, site: liver, lesion: hepatocellular carcinoma, dosed 77 weeks, study length 77 weeks): 336 mg/kg/day; TD50 (mouse, strain C3H/HeN, males, in feed, site: liver, lesion: several types, types named in the paper, dosed 77 weeks, study length 77 weeks): 201 mg/kg/day; TD50 (rat, strain ACI, males, in feed, site: large intestine, lesion: several types, types named in the paper, dosed 69 weeks, study length 69 weeks): 245 mg/kg/day

**Q.** With `O=NN1C[C@H](O)C[C@H]1C(=O)O` as the molecule, how does the TD50 (rat, strain MRC, females, in drinking water, site: any site (literature study), lesion: several types, types named in the paper, dosed 75 weeks, study length 104 weeks) read?
**A.** 3.84 mg/kg/day (inactive)

**Q.** And the carcinogen call (rat, strain MRC, males, in drinking water, site: any site (literature study), lesion: several types, types named in the paper, dosed 75 weeks, study length 104 weeks)?
**A.** negative (inactive)

**Q.** `NCC(=O)O` was tested. Which TD50 (rat, strain F344/DuCrj, females, in drinking water, site: any site (literature study), lesion: several types, types named in the paper, dosed 108 weeks, study length 108 weeks) did it give?
**A.** 7550 mg/kg/day

**Q.** What about the TD50 (rat, strain F344/DuCrj, females, in drinking water, site: kidney/pelvis, lesion: transitional-cell papilloma, dosed 108 weeks, study length 108 weeks) of the same molecule?
**A.** 25700 mg/kg/day

**Q.** What about the TD50 (rat, strain F344/DuCrj, females, in drinking water, site: liver, lesion: neoplastic nodule, dosed 108 weeks, study length 108 weeks) of the same molecule?
**A.** 157000 mg/kg/day

**Q.** And the TD50 (rat, strain F344/DuCrj, females, in drinking water, site: uterus, lesion: endometrial stromal polyp, dosed 108 weeks, study length 108 weeks)?
**A.** 3100 mg/kg/day

**Q.** Which results are given for `CC(C)Oc1ccc(Nc2ccccc2)cc1`?
**A.** TD50 (mouse, strain B6AKF1, females, oral dosing, site: any site (literature study), lesion: several types, types named in the paper, dosed 76 weeks, study length 76 weeks): 1200 mg/kg/day (inactive); TD50 (mouse, strain B6AKF1, females, oral dosing, site: liver, lesion: angioma, dosed 76 weeks, study length 76 weeks): 2650 mg/kg/day (inactive); carcinogen call (mouse, strain B6AKF1, females, oral dosing, site: lung, lesion: adenoma, dosed 76 weeks, study length 76 weeks): negative (inactive); TD50 (mouse, strain B6AKF1, males, oral dosing, site: any site (literature study), lesion: several types, types named in the paper, dosed 76 weeks, study length 76 weeks): 985 mg/kg/day (inactive); TD50 (mouse, strain B6AKF1, males, oral dosing, site: liver, lesion: hepatoma, dosed 76 weeks, study length 76 weeks): 1130 mg/kg/day (inactive); TD50 (mouse, strain B6AKF1, males, oral dosing, site: lung, lesion: adenoma, dosed 76 weeks, study length 76 weeks): 2180 mg/kg/day (inactive); TD50 (mouse, strain B6C3F1, females, oral dosing, site: any site (literature study), lesion: several types, types named in the paper, dosed 76 weeks, study length 76 weeks): 1290 mg/kg/day (inactive); TD50 (mouse, strain B6C3F1, females, oral dosing, site: liver, lesion: hepatoma, dosed 76 weeks, study length 76 weeks): 2650 mg/kg/day (inactive); carcinogen call (mouse, strain B6C3F1, females, oral dosing, site: lung, lesion: several types, types named in the paper, dosed 76 weeks, study length 76 weeks): negative (inactive); TD50 (mouse, strain B6C3F1, males, oral dosing, site: any site (literature study), lesion: several types, types named in the paper, dosed 76 weeks, study length 76 weeks): 300 mg/kg/day (inactive); TD50 (mouse, strain B6C3F1, males, oral dosing, site: liver, lesion: hepatoma, dosed 76 weeks, study length 76 weeks): 679 mg/kg/day (inactive); TD50 (mouse, strain B6C3F1, males, oral dosing, site: lung, lesion: adenoma, dosed 76 weeks, study length 76 weeks): 2180 mg/kg/day (inactive)
